Patent US11453667B2, “Pyridone-pyrimidine derivative acting as KRASG12C mutein inhibitor” (MEDSHINE DISCOVERY INC., priority 2018, dated 2022)

Legend:
[1] = tested on: MIA PaCa2 human pancreatic cancer cells with KRAS G12C mutation; assay: Cell experiment: anti-proliferative activity, CellTiter-Glo, MIA PaCa2; type: cell-based; settings: Homo sapiens, MIA PaCa-2, 120 h, 5 days culture
Description: (§1) This experiment is intended to verify that the compounds of the present invention have an inhibitory effect on the proliferation of NCI-H358 human non-small cell lung cancer cells with KRAS G12C mutation, MIA PaCa2 human pancreatic cancer cells with KRAS G12C mutation and wild-type A375 human malignant melanoma cells.
(§2) 40 μl of phosphate buffer was added to the peripheral wells of three 384-well microplates respectively, and 40 μl of cell suspension to be tested was added to the other wells of each plate respectively (plate 1: NCI-H358 cell suspension containing 500 NCI-H358 cells; plate 2: MIAPaCa2 cell suspension containing 300 MIAPaCa2 cells; plate 3: A375 cell suspension containing 300 A375 cells). The three cell plates were then placed in a carbon dioxide incubator and incubated overnight. Echo was used to perform a 3-fold gradient dilution of the compounds to be tested, and each compound was diluted with 10 concentration gradients (diluted from 50 μM to 0.003 μM), 100 nl of which was respectively added to the corresponding wells of the cell plates; after dosing, 40 μL of phosphate buffer was added to each well of rows A and P and columns 1 and 24, and then the cell plates were put back to the carbon dioxide incubator for culturing for 5 days. 20 μl of Promega CellTiter-Glo reagent per well was added to the cell plates, which was shaken at room temperature for 10 minutes in the dark to stabilize the luminescence signal. A PerkinElmer Envision multi-label analyzer was used for reading.
(§3) Data analysis: IC50 results were analyzed by GraphPad Prism 5.0 software […].

[2] = tested on: human non-small cell lung cancer NCI-H358; assay: In vivo drug efficacy test (2): subcutaneous xenograft tumor model; parameters: species or system BALB/c nude mice; settings: 100 mg/kg (0-6 days) + 50 mg/kg (7-20 days)
Description: (§4) To evaluate the in vivo efficacy of the test compounds in a subcutaneous xenograft tumor model of human non-small cell lung cancer NCI-H358.
BALB/c nude mice, female, 6-8 weeks old, weighing 18-21 grams. A total of 100 were required. They were provided by Shanghai Lingchang Experimental Animal Co., Ltd ( ? ? ). NCI-H358 tumor cells were resuspended in PBS to prepare 0.1 mL (5×10^6) of cell suspension, which was inoculated subcutaneously on the right back of each mouse (5×10^6/mouse) to wait for tumor growth. When the average tumor volume reached about 150-200 mm^3, randomized grouping and administration were performed, and the administration dose was shown in Table 6. The diameter of the tumor was measured with vernier calipers twice a week. The formula for calculating the tumor volume is: V=0.5a×b^2, wherein a and b represent the long and short diameters of the tumor, respectively. The tumor suppressive effect of the compounds was evaluated by TGI (%). TGI (%) reflects the tumor growth inhibition rate. Calculation of TGI (%): TGI (%)=[(1−(average tumor volume at the end of administration in a treatment group−average tumor volume at the beginning of administration in the treatment group))/(average tumor volume at the end of treatment in the solvent control group−average tumor volume at the beginning of treatment in the solvent control group)]×100%.

[3] = tested on: wild-type A375 human malignant melanoma cells; assay: Cell experiment: anti-proliferative activity, CellTiter-Glo, A375; type: cell-based; settings: Homo sapiens, A-375, 120 h, 5 days culture
Description: as §1, §2, §3

[4] = tested on: human non-small cell lung cancer NCI-H358; assay: In vivo drug efficacy test (4): subcutaneous xenograft tumor model; parameters: species or system BALB/c nude mice; settings: for TGI: day 27
Description: as §4
BALB/c nude mice, female, 6-8 weeks old, weighing 18-20 grams. A total of 40 were required. They were provided by Shanghai Lingchang Experimental Animal Co., Ltd ( ? ? ). NCI-H358 tumor cells were resuspended in PBS to prepare a cell suspension with a density of 5×10^7/mL, which was inoculated subcutaneously on the right back of each mouse (0.1 mL, 5×10^6/mouse) to wait for tumor growth. When the average tumor volume reached about 166 mm^3, randomized grouping and administration were performed, and the administration dose was shown in Table 8. The diameter of the tumor was measured with vernier calipers twice a week.
The formula for calculating the tumor volume is: V=0.5a×b^2, wherein a and b represent the long and short diameters of the tumor, respectively. The tumor suppressive effect of the compounds was evaluated by TGI (%). TGI (%) reflects the tumor growth inhibition rate. Calculation of TGI (%): TGI (%)=[(1−(average tumor volume at the end of administration in a treatment group−average tumor volume at the beginning of administration in the treatment group))/(average tumor volume at the end of treatment in the solvent control group−average tumor volume at the beginning of treatment in the solvent control group)]×100%.

[5] = 50 mg/kg (0-2 days) + 1.5 mg/kg (3-27 days)

- IC50 [1]: 0.07 µM
- IC50 [3]: 7.32 µM
Structure (SMILES): C=CC(=O)N1CCN(c2ncnc3c(=O)n(-c4c(N)c(Cl)cc(Cl)c4F)c(C(F)(F)F)cc23)CC1 [Example 49]
- Tumor volume (day 20) [2]: 30 mm^3
- TGI ([2]; day 20): 125.66%
- Tumor volume (day 27) ([4]; 5 mg/kg): 117 mm^3
- TGI ([4]; 5 mg/kg): 107.25%
- Tumor volume (day 27) ([4]; 15 mg/kg): 56 mm^3
- TGI ([4]; 15 mg/kg): 116.27%
- Tumor volume (day 27) [4, 5]: 295 mm^3
- TGI [4, 5]: 80.92%
